Measured values: patent US20040235799A1, “Use of a compound with a negatively charged domain of radicals for the treatment of restenosis” (priority 2001, published 2004)

System: Wistar rats
Experiment: Neointima formation after balloon catheter vessel injury of the carotid artery in rats
Assay type: in vivo
Description: The effects on neointima formation was assessed after inducing vessel injury in rats with a balloon catheter. Neointima formation is an important part in the process of restenosis. Adult mate Wistar rats (250-260 g) were housed under standard conditions and were fed with commercial rat chow and water ad libitum. During the experiment D-myo-inositol-1,2,6-trisphosphate (IP3) was administered via subcutaneously operated osmotic minipumps with a dose level of 1 mg/kg/hr. A control group received saline solution by osmotic minipumps. The animals were anaesthetised with an intraperitoneal injection of ketamine, 100 mg/kg, (MTC Pharmaceuticals, Cambridge, Ontario, Canada) and xylazine, 10 mg/kg (Bayer lnc., Etobicoke, Ontario, Canada). Using a dissecting microscope, the left carotid artery was exposed on the ventral side of the neck via a midline incision. The bifurcation of the carotid artery was located and two ligatures were placed around the external carotid artery, which was then tied off with the distal ligature. After temporarily occluding the internal carotid artery with a vascular clamp, a small incision was made between the two ligatures placed around the external carotid artery to introduce the endothelial denudation device, an inflated […] Fogarty embolectomy catheter (Baxter Healthcare, Buckinghamshire, UK). […]

Compound	Reduction of neointima formation (vs control, procedure similar to Example 3) [%]	Reduction of neointima formation (vs saline control, 1 mg/kg/hr via subcutaneous osmotic minipumps, 14 days post-operatively) [%]
O=C(Nc1ccccc1)O[C@@H]1[C@@H](OC(=O)Nc2ccccc2)[C@@H](OP(=O)(O)O)[C@@H](OP(=O)(O)O)[C@H](OP(=O)(O)O)[C@H]1OC(=O)Nc1ccccc1 [PP 11-201, D-3,4,5-tri-O-(phenylcarbamoyl) myo-inositol-1,2,6-trisphosphate]	62	–
O=P(O)(O)O[C@@H]1[C@H](OP(=O)(O)O)[C@H](O)[C@@H](O)[C@H](O)[C@H]1OP(=O)(O)O [IP3, D-myo-inositol-1,2,6-trisphosphate]	–	57
